Data taken from patent US5624923A, “Tricyclic diazepine vasopressin antagonists and oxytocin antagonists” (priority 1995, dated 1997).
pIC50: −log10 of the molar value.
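Note: reported value is IC50.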

What follows are compounds tested against T1, V1 Receptor Subtype in Human Platelet (Homo sapiens, UniProt P37288) (assay: Binding to Vasopressin V1 receptor subtype in Human Platelet Membranes). Details: human platelet membranes.
T1 construct: tissue Hudson Valley Blood Services, Westchester Medical Center, Valhalla, N.Y; host or cells: human platelets (frozen platelet rich plasma)
T1 sequence (P37288 whole entry): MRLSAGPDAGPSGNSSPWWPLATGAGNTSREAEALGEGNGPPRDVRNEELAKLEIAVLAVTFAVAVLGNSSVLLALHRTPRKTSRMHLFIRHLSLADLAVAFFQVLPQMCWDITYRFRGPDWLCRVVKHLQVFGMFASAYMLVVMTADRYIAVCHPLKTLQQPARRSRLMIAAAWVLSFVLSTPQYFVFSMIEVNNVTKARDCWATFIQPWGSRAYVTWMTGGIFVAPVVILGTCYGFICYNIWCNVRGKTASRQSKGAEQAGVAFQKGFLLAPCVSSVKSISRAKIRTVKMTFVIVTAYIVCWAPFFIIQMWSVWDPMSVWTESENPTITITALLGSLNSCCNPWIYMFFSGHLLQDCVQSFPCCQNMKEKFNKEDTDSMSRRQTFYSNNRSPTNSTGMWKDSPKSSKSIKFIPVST
`O=C(Nc1ccc(C(=O)N2Cc3ccnn3Cc3ccccc32)cc1)c1ccc(Cl)cc1Cl` [Example 217, N-[4-(4H-Pyrazolo[5,1-c][1,4]benzo-diazepin-5(10H)-ylcarbonyl)phenyl]-2,4-dichlorobenzamide] showed a pIC50 of 6.72.
`O=C(Nc1ccc(C(=O)N2Cc3cccn3Cc3sccc32)cc1)c1ccc(Cl)cc1Cl` [Example 274, N-(4-(5H-pyrrolo[1,2-a]thieno-[3,2-e][1,4]diazepin-4(10H)-ylcarbonyl)phenyl]-2,4-dichloro-benzamide] gave a pIC50 of 6.62.
Compound `COc1cc(C(=O)N2Cc3cccn3Cc3ccccc32)ccc1NC(=O)c1ccccc1C` [Example 477, N-[4-(5H-pyrrolo[2,1-c][1,4]benzodiazepin-10(11H)-ylcarbonyl)-2-methoxy-phenyl]-2-methylbenzamide] has a pIC50 of 8.52.
`COc1cc(C(=O)N2Cc3cccn3Cc3ccccc32)ccc1NC(=O)c1ccc(Cl)cc1Cl` [Example 478, N-[4-(5H-pyrrolo[2,1-c][1,4]benzodiazepin-10(11H)-ylcarbonyl)-2-methoxy-phenyl]-2,4-dichlorobenzamide] showed a pIC50 of 7.49.
With `COc1cc(C(=O)N2Cc3cccn3Cc3ccccc32)ccc1NC(=O)c1cccc(F)c1C` [Example 479, N-[4-(5H-pyrrolo[2,1-c][1,4]benzodiazepin-10(11H)-ylcarbonyl)-2-methoxy-phenyl]-3-fluoro-2-methylbenzamide] the pIC50 was 7.64.
With `O=C(Nc1ccc(C(=O)N2Cc3cccn3Cc3ccccc32)cc1)c1cc([N+](=O)[O-])ccc1Cl` [Example 480, N-[4-(5H-pyrrolo[2,1-c][1,4]benzodiazepin-10(11H)-ylcarbonyl)phenyl]-2-chloro-5-nitrobenzamide] the pIC50 was 6.27.
In the case of `Cc1cccc(C(=O)Nc2ccc(C(=O)N3Cc4cccn4Cc4ccccc43)c(Cl)c2)c1C` [Example 525, N-[4-(5H-pyrrolo[2,1-c][1,4]benzodiazepin-10(11H)-ylcarbonyl]-3-chlorophenyl]-2,3-dimethylbenzamide], the pIC50 was 6.37.
`O=C(Nc1ccc(C(=O)N2Cc3cccn3Cc3ccccc32)c(Cl)c1)c1ccc(F)cc1Cl` [Example 527, N-[4-(5H-pyrrolo[2,1-c][1,4]benzodiazepin-10(11H)-ylcarbonyl]-3-chlorophenyl]-4-fluoro-2-chlorobenzamide] showed a pIC50 of 7.59.
Compound `O=C(Nc1ccc(C(=O)N2Cc3cccn3Cc3ccccc32)c(Cl)c1)c1ccccc1C(F)(F)F` [Example 528, N-[4-(5H-pyrrolo[2,1-c][1,4]benzodiazepin-10(11H)-ylcarbonyl]-3-chlorophenyl]-2-(trifluoromethyl)benzamide] has a pIC50 of 6.70.
`Cc1ccccc1C(=O)Nc1ccc(C(=O)N2Cc3cccn3Cc3ccccc32)cc1Cl` [Example 530, N-[4-(5H-Pyrrolo[2,1-c][1,4]benzodiazepin-10(11H)-ylcarbonyl)-2-chlorophenyl]-2-methylbenzamide] was tested, and the pIC50 was 8.52.
